Measurements: patent US11613535B2, “Compounds for MYC inhibition” (THE SCRIPPS RESEARCH INSTITUTE, priority 2018, dated 2023)
Values after ≈ are worked out from the molar mass of the structure shown.

Tests used:
[1] = Solubility analysis by dynamic light scattering; assay type: physicochemical
Description: (§1) Compound solubilities were measured by dynamic light scattering (Table 1). […] 2. Detection was conducted on a graphene surface. 3. A His-tagged bHLH construct was immobilized on a chip for site-specific functionalization. […] Compounds were also screened against a monomeric form of MAX (mMAX), as well as MYC-MAX and MAX-MAX dimers.
Solubility analysis. Compounds were analyzed for solubility by dynamic light scattering on a DynaPro NanoStar detector (Wyatt Technology). Compounds were dissolved in MES (pH 6.0) from a 1000×DMSO stock at varying concentrations. Samples were analyzed for aggregation and the maximal concentration at which aggregates were not observed was used as the measure of solubility.

[2] = target: T1, His-tagged MYC (Homo sapiens, UniProt P01106); assay: Bio-FET relative binding studies; details: Relative to 5a Req; compounds at 10 μM in MES (pH 6.0) with 3% DMSO
T1 construct: A His-tagged bHLH construct was immobilized on a chip for site-specific functionalization; made in house; host or cells: BL21 E. coli
T1 sequence (P01106 369-421 limits assumed): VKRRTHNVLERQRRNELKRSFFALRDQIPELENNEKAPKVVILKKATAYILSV
Description: as §1
Protein expression and purification. His-tagged MYC, mMAX, MYC-MAX, and MAX-MAX constructs were expressed in BL21 E. coli cells and purified as previously described.^10
FET functionalization and regeneration. FET experiments were conducted on an Agile R100 (Nanomedical Diagnostics) at ambient temperature. Chips were functionalized with Ni-NTA according to manufacturer protocols. […] Ni-NTA functionalized chips were regenerated via treatment with 250 mM imidazole for 30 mins, followed by extensive washing in MES, then reintroduction of His-tagged protein.
Relative binding studies. Test compounds were dissolved to desired concentration in MES (pH 6.0) buffer with 3% DMSO. Protein-bound chips were initialized and rinsed in MES buffer with 3% DMSO. For relative binding studies, 6-8 test compounds (including 5a) were analyzed at 10 μM in a single run, and the Req determined and compared to that of 5a. Compounds were tested a minimum of three times across different chips.

[3] = test system: CEF transfected with ATG-MYC; assay: CEF focus assay (microtumor formation); assay type: cell-based, chicken; details: Measured in CEF transfected with ATG-MYC
Description: The lead exemplified compound in the prior patent application is termed KJ-Pyr-9 herein. […] CEF assay.

[4] = target: T2, MYC (Homo sapiens, UniProt P01106); assay: MYC affinity assessment by Bio-FET concentration curve; assay type: binding; details: concentration for ½ Rmax, averaged across three chips
T2 construct: A His-tagged bHLH construct was immobilized on a chip for site-specific functionalization; made in house; host or cells: BL21 E. coli
T2 sequence (P01106 369-421 limits assumed): as above
Description: (§2) A 10 mg/kg i.v. PK study was conducted in mouse to determine if these favored properties translated into improved PK. Non-compartmental analysis of the mouse PK followed by allometric scaling to the rat afforded a comparison to the rat PK study conducted previously on 5a and is shown in Table 2.
FET functionalization and regeneration. FET experiments were conducted on an Agile R100 (Nanomedical Diagnostics) at ambient temperature. Chips were functionalized with Ni-NTA according to manufacturer protocols. Surface-bound Ni-NTA sites were then bound to His-tagged protein by 15 min incubation with ˜100 nM protein in 50 mM MES (pH 6.0). Ni-NTA functionalized chips were regenerated via treatment with 250 mM imidazole for 30 mins, followed by extensive washing in MES, then reintroduction of His-tagged protein.
MYC affinity assessment. […] Varying concentrations of 5g were allowed to equilibrate with MYC, and the Req values plotted against the concentration. […] This was repeated across three chips and the affinity averaged across those three runs.

[5] = PK analysis of 5g, 10 mg/kg i.v.; assay type: in vivo, C57BL/6 mice
Description: as §2
PK analysis. Pharmacokinetic analysis of 5g was conducted by Explora Biolabs. 12 C57BL/6 (6 male, 6 female) mice were administered 5g at 10 mg/kg by IV injection. Blood samples were collected at 2 min and 0.08, 0.25, 0.5, 1, 2, 8 and 24 hours post-injection. Bioanalysis was conducted by Integrated Analytical Solutions by processing through a Shimadzu VP series 10 system LC followed by mass analysis on an Applied Biosystems/MDS SCIEX API 3000 triple quadrupole mass spectrometer. All procedures involving the care and use of animals was approved by the IACUC at Explora BioLabs.

Solubility ([1]; pH 6)	FET Req [2]	IC50 [3]	Solubility ([1]; Measured by DLS in MES (pH 6.0) with <0.1% DMSO)	IC50 ([3]; Gallus gallus)	Kd [4]	improvement in exposure (AUC) ([5]; 5g versus 5a)	mean residence time ([5]; 5g, 10 mg/kg i.v. mouse PK, comparison)	AUC ([5]; 5g, 10 mg/kg i.v., C57Bl6 mice)	CI ([5]; 5g, 10 mg/kg i.v., C57Bl6 mice)	Half-life ([5]; 5g, 10 mg/kg i.v., C57Bl6 mice)	Vss ([5]; 5g, 10 mg/kg i.v., C57Bl6 mice)	MRT ([5]; both sexes, C57BL/6, mouse, blood, iv, 5g, 10 mg/kg i.v., C57Bl6 mice)	SMILES
10 µM (≈ 2.46 µg/mL)	0%												N#Cc1ccc(-c2cccc(-c3ccco3)n2)cc1 [Compound 7b]
32 µM (≈ 9.58 µg/mL)	0%	10 µM											N#Cc1ccc(-c2cc(-c3ccc(C(N)=O)cc3)ccn2)cc1 [Compound 7a]
	97%		125 µM (≈ 52.9 µg/mL)	5 µM	0.0125 ± 0.0041 µM	30 fold	4.8 h	44,000 ng*h/mL	3.8 mL/min/kg	4.8 h	0.97 L	4.3 h	NC(=O)c1ccc(-c2cc(-c3ccc(-c4nccs4)cc3)nc(-c3ccco3)c2)cc1 [Compound 5g]
